Laboratory results as given in patent US7973047B2, “Beta-Secretase modulators and methods of use” (Amgen Inc., priority 2010, dated 2011).
Read-outs that look alike come from different tables or passages of the source.

System: Aβ40 in conditioned medium of cells stably expressing Amyloid Precursor Protein (APP)
Assay: BACE cell-based assay: Aβ40 in conditioned medium by sandwich ELISA
Conditions: unit inferred, read-out: Cell Assay
In short: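 Aβ40 in conditioned medium was read by time-resolved fluorescence sandwich ELISA (capture pAb40, detection biotinylated 6E10, 4° C incubations). Compounds were applied for 24 h to cells stably expressing APP, at 10 doses from 100 or 10 μM top, 0.1% DMSO. IC50 derived from percent of control.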

[1] = cell based assay data of Table 4

| Compound | IC50 [1] | IC50 (cell based assay data, Table 4) |
| --- | --- | --- |
| CC(=O)N[C@@H](Cc1cncc(F)c1)[C@H](O)CN[C@H]1CC2(CCC2)Oc2ncc(CC(C)(C)C)cc21 [compound 830, N-((1S,2R)-3-(((4′S)-6′-(2,2-dimethylpropyl)-3′,4′-dihydrospiro[cyclobutane-1,2′-pyrano[2,3-b]pyridin]-4′-yl)amino)-1-((5-fluoro-3-pyridinyl)methyl)-2-hydroxypropyl)acetamide] |  | 1.82 nM |
| CC(=O)N[C@@H](Cc1cc(F)cc(Cl)c1)[C@H](O)CN[C@H]1CC(C)(C)Oc2cnc(CC(C)(C)C)cc21 [compound 796] |  | 8.39 nM |
| CC(=O)N[C@@H](Cc1ccc(F)cc1)[C@H](O)CN[C@H]1C[C@]2(C[C@H](C)C2)Oc2ncc(CC(C)C)cc21 [compound 615, N-((1S,2R)-1-((4-fluorophenyl)methyl)-2-hydroxy-3-(((1s,3R,4′S)-3-methyl-6′-(2-methylpropyl)-3′,4′-dihydrospiro[cyclobutane-1,2′-pyrano[2,3-b]pyridin]-4′-yl)amino)propyl)acetamide] | 24.8 nM |  |
| CC(=O)N[C@@H](Cc1ccc(F)c(F)c1)[C@H](O)CN[C@H]1CC(C)(C)Oc2c1cc(CC(C)(C)C)nc2N1CCCC1 [compound 758] |  | 40.1 nM |
| CC(=O)N[C@@H](Cc1cc(F)cc(F)c1)[C@H](O)CN[C@H]1CC2(CCC2)Oc2cc(F)c(Br)cc21 [compound 801] |  | 571 nM |
| N-((1S,2R)-3-(((4′S)-6′-(2,2-dimethylpropyl)-3′,4′-dihydrospiro[cyclopropane-1,2′-pyrano[2,3-b]pyridin]-4′-yl)amino)-1-((4-fluoro-3-methylphenyl)methyl)-2-hydroxypropyl)acetamide [compound 550] | 20.3 nM |  |
| COC(=O)c1ccc2c(c1)[C@@H](NC[C@@H](O)[C@H](Cc1cccc(C#N)c1)NC(C)=O)CC1(CCC1)O2 [compound 729] |  | 1450 nM |
| CC(=O)N[C@@H](Cc1cccc(F)c1)[C@H](O)CN[C@H]1CC2(CCC2)Oc2ncc(CC(C)C)cc21 [compound 844] |  | 3.63 nM |
| CC(=O)N[C@@H](Cc1c(F)cccc1F)[C@H](O)CN[C@H]1CC2(CCC2)Oc2ncc(CC(C)(C)C)cc21 [compound 826] |  | 6.93 nM |
| CC(=O)N[C@@H](Cc1cc(F)cc(Cl)c1)[C@H](O)CN[C@H]1CC2(CCC2)Oc2ncc(CC(C)(C)C)cc21 [compound 567] | 3.27 nM |  |
| CC#CC[C@H](NC(C)=O)[C@H](O)CN[C@H]1CC2(CCC2)Oc2ncc(CC(C)(C)C)cc21 [compound 705, N-((1S)-1-((1R)-2-(((4′S)-6′-(2,2-dimethylpropyl)-3′,4′-dihydrospiro[cyclobutane-1,2′-pyrano[2,3-b]pyridin]-4′-yl)amino)-1-hydroxyethyl)-3-pentyn-1-yl)acetamide] | 433 nM |  |
| CC(=O)N[C@@H](Cc1cccc(F)c1)[C@H](O)CN[C@H]1CC2(CCC2)Oc2c1cc(CC(C)(C)C)nc2NC1CC1 [compound 602] | 2.89 nM |  |
| CC(=O)N[C@@H](Cc1ccc(F)cc1)[C@H](O)CN[C@H]1CC2(CCC2)Oc2c1cc(CC(C)(C)C)nc2NC1CCOCC1 [compound 587] | 8.48 nM |  |
| CC(=O)N[C@@H](Cc1ccc(F)cc1)[C@H](O)CN[C@H]1CC2(CCC2)Oc2c1cc(CC(C)(C)C)nc2OC(C)C [compound 608, N-((1S,2R)-3-(((4′S)-6′-(2,2-dimethylpropyl)-8′-((1-methylethyl)oxy)-3′,4′-dihydrospiro[cyclobutane-1,2′-pyrano[2,3-c]pyridin]-4′-yl)amino)-1-((4-fluorophenyl)methyl)-2-hydroxypropyl)acetamide] | 64.3 nM |  |
| CC(=O)N[C@@H](Cc1cc(F)cc(F)c1)[C@H](O)CN[C@H]1CC2(CCC2)Oc2ccc(N3CCC3=O)cc21 [compound 795] |  | 255 nM |
| CC(=O)N[C@@H](Cc1cc(F)c(F)cc1F)[C@H](O)CN[C@H]1CC2(CCC2)Oc2ncc(CC(C)(C)C)cc21 [compound 685] | 9.28 nM |  |
| CC(=O)N[C@@H](Cc1cc(F)cc(F)c1)[C@H](O)CN[C@H]1CC2(CCC2)Oc2ncc(CC(C)(C)F)cc21 [compound 835] |  | 2.05 nM |
| CC(=O)N[C@@H](Cc1cncs1)[C@H](O)CN[C@H]1CC2(CCC2)Oc2ncc(CC(C)(C)C)cc21 [compound 638, N-((1S,2R)-3-(((4′S)-6′-(2,2-dimethylpropyl)-3′,4′-dihydrospiro[cyclobutane-1,2′-pyrano[2,3-b]pyridin]-4′-yl)amino)-2-hydroxy-1-(1,3-thiazol-5-ylmethyl)propyl)acetamide] | 2.32 nM |  |
| CC(=O)N[C@@H](Cc1ccc(F)cc1)[C@H](O)CN[C@H]1CC2(CCC2)Oc2ncc(CC(C)(C)F)cc21 [compound 571] | 80.9 nM |  |

Results, then the compound that gave them:

| IC50 [1] | IC50 (cell based assay data, Table 4) | Compound |
| --- | --- | --- |
| 36.4 nM |  | CC(C)(C)Cc1cnc2c(c1)[C@@H](NC[C@@H](O)[C@H](Cc1ccc(F)cc1)NC(=O)C(F)F)CC1(CCC1)O2 [compound 630] |
| 1200 nM |  | CC(=O)N[C@@H](Cc1cc(F)cc(F)c1)[C@H](O)CN[C@H]1CC2(CCC2)Oc2ncc(C(F)(F)F)cc21 [compound 700, N-((1S,2R)-1-((3,5-difluorophenyl)methyl)-2-hydroxy-3-(((4′S)-6′-(trifluoromethyl)-3′,4′-dihydrospiro[cyclobutane-1,2′-pyrano[2,3-b]pyridin]-4′-yl)amino)propyl)acetamide] |
| 12.1 nM |  | CC(=O)N[C@@H](Cc1ccc(F)cc1)[C@H](O)CN[C@H]1CC2(CCC2)Oc2ncc([C@H](F)C(C)(C)C)cc21 [compound 675] |
| 23.4 nM |  | CC(=O)N[C@@H](Cc1cccc(F)c1)[C@H](O)CN[C@H]1CC2(CCC2)Oc2c1cc(CC(C)(C)C)[nH]c2=O [compound 594] |
|  | 65 nM | CC(=O)N[C@@H](Cc1ccc(OC(F)(F)F)cc1)[C@H](O)CN[C@H]1CC2(CCC2)Oc2ncc(CC(C)(C)C)cc21 [compound 712] |
|  | 68.8 nM | CC(=O)N[C@@H](CC1CC1)[C@H](O)CN[C@H]1C[C@]2(C[C@H](C)C2)Oc2ncc(CC(C)(C)C)cc21 [compound 725, N-((1S,2R)-1-(cyclopropylmethyl)-3-(((1s,3R,4′S)-6′-(2,2-dimethylpropyl)-3-methyl-3′,4′-dihydrospiro[cyclobutane-1,2′-pyrano[2,3-b]pyridin]-4′-yl)amino)-2-hydroxypropyl)acetamide] |
|  | 1160 nM | CC(=O)N[C@@H](Cc1cc(F)cc(F)c1)[C@@H](O)CN[C@H]1CC2(CCC2)Oc2ccc(-n3cccn3)cc21 [compound 781] |
|  | 52.7 nM | CC(=O)N[C@@H](Cc1ccc(Cl)cc1)[C@H](O)CN[C@H]1CC2(CCC2)Oc2ncc(CC(C)C)cc21 [compound 858] |
| 28.5 nM |  | CC(=O)N[C@@H](Cc1ccc(F)c(C)c1)[C@H](O)CN[C@H]1CC2(CCC2)Oc2ncc(CC(C)(C)F)cc21 [compound 578] |
|  | 195 nM | CC(=O)N[C@@H](CC1CC1C)[C@H](O)CN[C@H]1CC2(CCC2)Oc2ncc(CC(C)(C)C)cc21 (stereo partly drawn) [compound 723, N-((1S,2R)-3-(((4′S)-6′-(2,2-dimethylpropyl)-3′,4′-dihydrospiro[cyclobutane-1,2′-pyrano[2,3-b]pyridin]-4′-yl)amino)-2-hydroxy-1-((2-methylcyclopropyl)methyl)propyl)acetamide] |
| 4.43 nM |  | CC(=O)N[C@@H](Cc1cccc(F)c1)[C@H](O)CN[C@H]1CC2(CCC2)Oc2c1cc(CC(C)(C)C)nc2NCCN [compound 606] |
|  | 193 nM | C=CC[C@H](NC(C)=O)[C@H](O)CN[C@H]1CC2(CCC2)Oc2ncc(CC(C)(C)F)cc21 [compound 741, N-((1S)-1-((1R)-2-(((4′S)-6′-(2-fluoro-2-methylpropyl)-3′,4′-dihydrospiro[cyclobutane-1,2′-pyrano[2,3-b]pyridin]-4′-yl)amino)-1-hydroxyethyl)-3-buten-1-yl)acetamide] |
|  | 184 nM | CC(=O)N[C@@H](CC1CC1)[C@H](O)CN[C@H]1CC2(CCC2)Oc2ncc(CC(C)(C)CC(F)F)cc21 [compound 724, N-((1S,2R)-1-(cyclopropylmethyl)-3-(((4′S)-6′-(4,4-difluoro-2,2-dimethylbutyl)-3′,4′-dihydrospiro[cyclobutane-1,2′-pyrano[2,3-b]pyridin]-4′-yl)amino)-2-hydroxypropyl)acetamide] |
| 2.03 nM |  | CC(=O)N[C@@H](Cc1cccc(C#N)c1)[C@H](O)CN[C@H]1CC2(CCC2)Oc2ncc(CC(C)(C)C)cc21 [compound 540, N-((1S,2R)-1-((3-cyanophenyl)methyl)-3-(((4′S)-6′-(2,2-dimethylpropyl)-3′,4′-dihydrospiro[cyclobutane-1,2′-pyrano[2,3-b]pyridin]-4′-yl)amino)-2-hydroxypropyl)acetamide] |
| 33.9 nM |  | CCc1cc(Br)c2c(c1)[C@@H](NC[C@@H](O)[C@H](Cc1cccc(C#N)c1)NC(C)=O)CC(C)(C)O2 [compound 529] |
| 66.5 nM |  | CC(=O)N[C@@H](Cc1ccc(F)cc1)[C@H](O)CN[C@H]1CC2(CCC2)Oc2ncc(CC3CCC3)cc21 [compound 682] |
| 849 nM |  | CC(=O)N[C@@H](Cc1cccc(C#N)c1)[C@H](O)CN[C@H]1CC2(CCC2)Oc2ncc(C(F)(F)F)cc21 [compound 699] |
| 14.6 nM |  | CCCc1nc(C[C@H](NC(C)=O)[C@H](O)CN[C@H]2CC3(CCC3)Oc3ncc(CC(C)(C)C)cc32)cs1 [compound 636, N-((1S,2R)-3-(((4′S)-6′-(2,2-dimethylpropyl)-3′,4′-dihydrospiro[cyclobutane-1,2′-pyrano[2,3-b]pyridin]-4′-yl)amino)-2-hydroxy-1-((2-propyl-1,3-thiazol-4-yl)methyl)propyl)acetamide] |
| 80.3 nM |  | CC(=O)N[C@@H](Cc1ccc(F)cc1)[C@H](O)CN[C@@H]1CC2(CCC2)Oc2c1cc(CC(C)(C)C)nc2OC(C)C [compound 607] |
|  | 116 nM | CC(=O)N[C@@H](Cc1cc(F)cc(F)c1)[C@H](O)CN[C@H]1CC2(CCC2)Oc2cc(F)c(N[C@@H]3CCOC3)cc21 [compound 803] |
| 2.15 nM |  | CC(=O)N[C@@H](Cc1ccc(C)c(F)c1)[C@H](O)CN[C@H]1CC2(CCC2)Oc2ncc(CC(C)(C)C)cc21 [compound 576] |
| 37.2 nM |  | CCCc1cnc2c(c1)[C@@H](NC[C@@H](O)[C@H](Cc1ccc(F)cc1)NC(C)=O)CC1(CCC1)O2 [compound 694] |
